# “And” between values parts separate entries of the source, which are not always exact repeats. Equal values may be shown once.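 96-well plates; 48 h exposure; 5 concentrations. Endpoints by linear interpolation between flanking doses. Not reached: highest tested concentration assigned. GI50 = concentration required for 50% inhibition of growth. At the TGI there is no net growth.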
# Tests used:
# Experiment in all cases: NCI anticancer screen, dose series, 48 h
# HT29 colon = system: HT29 colon
# IGROV1 ovarian = system: IGROV1 ovarian
# HCT-15 colon = system: HCT-15 colon
# U251 CNS = system: U251 CNS
# MDA-MB-435 = system: MDA-MB-435
# RPMI-8226 leukemia = system: RPMI-8226 leukemia
# ACHN renal = system: ACHN renal
# UACC-257 melanoma = system: UACC-257 melanoma
# BT-549 breast = system: BT-549 breast
# NCI-H23 lung = system: NCI-H23 lung
SMILES,TGI (HT29 colon),TGI (IGROV1 ovarian),TGI (HCT-15 colon),TGI (U251 CNS),TGI (MDA-MB-435),TGI (RPMI-8226 leukemia),TGI (ACHN renal),TGI (UACC-257 melanoma),TGI (BT-549 breast),TGI (NCI-H23 lung),GI50 (HT29 colon),GI50 (RPMI-8226 leukemia)
Cc1sc2ccccc2[n+]1CCC(=O)O,> 100 µM,> 100 µM,> 100 µM,> 100 µM,> 100 µM,> 100 µM,> 100 µM,> 100 µM,> 100 µM,> 100 µM,,
CC1(C)Oc2ccc(NC(=O)CCC(N)C(=O)O)cc2O1 (stereo not drawn),> 100 µM,> 100 µM,> 100 µM,> 100 µM,> 100 µM,> 100 µM,> 100 µM,,> 100 µM,> 100 µM,,
COc1ccc(/C=C2\N=C(c3ccccc3)N(C3Nc4cc5c(cc4S3)NC(N3C(=O)/C(=C/c4ccc(OC)cc4)N=C3c3ccccc3)S5)C2=O)cc1 (stereo not drawn),> 100 µM,> 100 µM,> 100 µM,63.7 µM,> 100 µM,86.7 µM,> 100 µM,> 100 µM,61.9 µM,> 100 µM,,
COc1ccc2c(c1)/c(=C/c1ccc(N(C)C)cc1)c1cc(-c3ccccc3)[n+](C)n12,0.566 µM and 0.982 µM,0.543 µM,4.02 µM,1.6 µM,1.47 µM,,5.68 µM,2.19 µM,,,0.0753 µM,0.0555 µM
Cc1c(-c2ccccc2)c(C#N)c2nnc(C(N)=O)c(N)n12,> 100 µM,> 100 µM,> 100 µM,> 100 µM,> 100 µM,> 100 µM,> 100 µM,> 100 µM,> 100 µM,> 100 µM,,
CC(C)CNC(=O)Cn1c(-c2ccccc2)cc2ccccc21,> 100 µM,> 100 µM,> 100 µM,> 100 µM,> 100 µM,> 100 µM,> 100 µM,> 100 µM,> 100 µM,> 100 µM,,
Nc1cc(N2CCCC2)nc(=O)n1Cc1ccccc1,> 100 µM,> 100 µM,> 100 µM,> 100 µM,> 100 µM,> 100 µM,> 100 µM,> 100 µM,> 100 µM,> 100 µM,,
CC(=O)c1cc2c(s1)C(=O)c1ccccc1C2=O,21.4 µM,5.5 µM,,17 µM,2.21 µM,26.9 µM,4.02 µM,3.15 µM,7.75 µM,,,
CSc1c(C#N)c2n(c3ccccc13)c1ccccc1[n+]2C,46.2 µM,> 100 µM,> 100 µM,73.7 µM,79.5 µM,85.6 µM,50.9 µM,67.8 µM,74.3 µM,70.7 µM,,
CCCCOCn1c(=O)[nH]c(=O)c2cc(Br)ccc21,> 100 µM,> 100 µM,> 100 µM,> 100 µM,> 100 µM,,42.1 µM,> 100 µM,,,,
CSc1cc(N)ccc1N=Nc1ccc(S(N)(=O)=O)cc1,> 100 µM,72.3 µM,62.9 µM,> 100 µM,97.4 µM,38.4 µM,93 µM,> 100 µM,36.4 µM,> 100 µM,,
Cn1c2ccccc2c2c3c(c4c5ccccc5n(C)c4c21)C(=O)c1ccccc1C3=O,> 100 µM,> 100 µM,> 100 µM,45.9 µM,> 100 µM,> 100 µM,97.3 µM,> 100 µM,52.6 µM,63.5 µM,,
COc1cc(S(=O)(=O)Nc2ccc(-c3csc(N4C(=O)CSC4c4ccccc4)n3)cc2)ccc1Cl (stereo not drawn),> 100 µM,> 100 µM,> 100 µM,,> 100 µM,89.3 µM,> 100 µM,> 100 µM,> 100 µM,> 100 µM,,
CC1(COS(=O)(=O)OCC2(C)COS(=O)(=O)OC2)COS(=O)(=O)OC1,> 69.6 µM,> 100 µM,> 100 µM,> 100 µM,> 78.4 µM,> 50.1 µM,> 74 µM,> 100 µM,> 96.2 µM,> 89.4 µM,,
Cc1cc(C)n(CN(Cn2nc(C)cc2C)C2CCCCC2)n1,42.4 µM,50.1 µM,42.6 µM,83.6 µM,45.4 µM,38.9 µM,51.9 µM,78.4 µM,49.6 µM,56.8 µM,,
CC(C)(C)OC[C@H](O)CC#N,> 100 µM,,> 100 µM,> 100 µM,> 100 µM,> 100 µM,> 100 µM,> 100 µM,> 100 µM,> 100 µM,,
[N-]=[N+]=Nc1ccc(CNc2cc(=O)[nH]c(=O)[nH]2)cc1,> 100 µM,> 100 µM,> 100 µM,> 100 µM,> 80 µM,> 100 µM,> 100 µM,> 100 µM,> 100 µM,> 100 µM,,
CC(=O)O[C@H]1C(=O)[C@@]2(C)[C@H]([C@H](OC(=O)c3ccccc3)[C@]3(O)C[C@H](OC(=O)[C@H](O)[C@@H](NC(=O)CC(C)(C)C)c4ccccc4)C(C)=C1C3(C)C)C1(OC(C)=O)CO[C@@H]1C[C@@H]2O (stereo partly drawn),0.0133 µM,> 10 µM,> 5.78 µM,,,,> 10 µM,> 10 µM,> 10 µM,> 10 µM,,
COc1cc2c(cc1OC)-c1c3c(cc4c1[C@@H](C2)N(C)CC4)OCO3,28.8 µM,49.9 µM,40.8 µM,48.8 µM,,22.8 µM,,26 µM,,26.1 µM,,
Cn1nc(S(N)(=O)=O)s/c1=N/C(N)=S,> 100 µM,,> 100 µM,> 100 µM,> 100 µM,> 100 µM,> 100 µM,> 100 µM,> 100 µM,> 100 µM,,
C[n+]1c2ccccc2c(C(=O)Nc2ccc(S(=O)(=O)N=C(N)N)cc2)c2ccccc21,> 100 µM,> 100 µM,> 100 µM,> 100 µM,> 100 µM,> 100 µM,> 100 µM,> 100 µM,,> 100 µM,,
